ChEMBL document CHEMBL1155207, “Palbinone and triterpenes from Moutan Cortex (Paeonia suffruticosa, Paeoniaceae) stimulate glucose uptake and glycogen synthesis via activation of AMPK in insulin-resistant human HepG2 Cells” (Bioorg Med Chem Lett, 2009)
Calls of active or inactive are those of the source. The calls are words filed in the database; no cut-off is given here.

Experiments:
[1] = Cytotoxicity against human HepG2 cells assessed as cell survival at 5 uM after 24 hrs by MTT assay; type: cell-based; details: read-out: Survival
[2] = Cytotoxicity against human HepG2 cells assessed as cell survival at 10 uM after 24 hrs by MTT assay; type: cell-based; details: read-out: Survival
[3] = Cytotoxicity against human HepG2 cells assessed as cell survival at 20 uM after 24 hrs by MTT assay; type: cell-based; details: read-out: Survival
[4] = Cytotoxicity against human HepG2 cells assessed as cell survival at 100 uM after 24 hrs by MTT assay; type: cell-based; details: read-out: Survival
[5] = molecular target: T1, AMP-activated protein kinase, AMPK (Homo sapiens) (UniProt P54646+O43741+P54619+Q9UGJ0+Q9Y478+Q13131+Q9UGI9); assay: Induction of AMPK phosphorylation in human HepG2 cells at 10 uM by Western blot analysis in presence of 33 mM glucose; type: cell-based
[6] = molecular target: Glycogen synthase kinase-3 beta (Homo sapiens) (UniProt P49841); assay: Induction of GSK3-beta phosphorylation in human HepG2 cells at 10 uM by Western blot analysis in presence of 33 mM glucose; type: cell-based
Sequence of Glycogen synthase kinase-3 beta (Homo sapiens) (P49841 whole entry, looked up): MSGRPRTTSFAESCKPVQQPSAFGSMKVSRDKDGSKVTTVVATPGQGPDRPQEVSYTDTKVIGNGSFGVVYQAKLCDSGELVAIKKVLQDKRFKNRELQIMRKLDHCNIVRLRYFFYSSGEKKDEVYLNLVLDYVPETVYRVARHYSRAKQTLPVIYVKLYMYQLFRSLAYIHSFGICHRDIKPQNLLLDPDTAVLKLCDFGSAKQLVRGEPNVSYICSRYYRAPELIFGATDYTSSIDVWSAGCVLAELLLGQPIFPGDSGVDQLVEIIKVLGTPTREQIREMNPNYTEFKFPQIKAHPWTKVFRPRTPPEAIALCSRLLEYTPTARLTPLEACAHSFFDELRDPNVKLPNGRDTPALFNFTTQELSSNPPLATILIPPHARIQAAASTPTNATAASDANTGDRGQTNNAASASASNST

[7] = system: HepG2; assay: Increase in glycogen synthesis in human HepG2 cells assessed as incorporation of [14C]glucose in to cellular glycogen pools at 10 uM after 60 mins in presence of 33 mM glucose; type: functional, cell-based
[8] = system: HepG2; assay: Induction of glucose uptake in human HepG2 cells at 10 uM in presence of 33 mM […] by scintillation counting; type: functional, cell-based
[9] = molecular target: T1, AMP-activated protein kinase, AMPK (Homo sapiens); assay: Induction of AMPK phosphorylation in human HepG2 cells by Western blot analysis in presence of 33 mM glucose; type: cell-based
[10] = molecular target: Glycogen synthase kinase-3 beta (Homo sapiens) (UniProt P49841); assay: Induction of GSK3-beta phosphorylation in human HepG2 cells by Western blot analysis in presence of 33 mM glucose; type: cell-based
[11] = system: HepG2; assay: Induction of acetyl-coA carboxylase phosphorylation in human HepG2 cells by Western blot analysis in presence of 33 mM glucose; type: cell-based
[12] = system: HepG2; assay: Increase in glycogen synthesis in human HepG2 cells assessed as incorporation of [14C]glucose in to cellular glycogen pools at 1 uM after 60 mins in presence of 33 mM glucose; type: functional, cell-based
[13] = system: HepG2; assay: Induction of glucose uptake in human HepG2 cells in presence of 33 mM […] by scintillation counting; type: functional, cell-based

Structure (SMILES) | viability at 24 h, 5 µM [1] | viability at 24 h, 10 µM [2] | viability at 24 h, 20 µM [3] | viability at 24 h, 100 µM [4] | Activity [5] | Activity [6] | Activity [7] | Activity [8] | Activity [9] | Activity [10] | Activity [11] | Activity [12] | Activity [13]
C=C1CC[C@]2(C(=O)O)CC[C@]3(C)C(=CC[C@@H]4[C@@]5(C)CC[C@H](O)[C@@](C)(CO)[C@@H]5CC[C@]43C)[C@@H]2C1 | 100% | 96.7% | 84.6% | 65% | Active | Active | Active | Active |  |  |  |  | 
CC[C@H](CC[C@@H](C)[C@H]1CC[C@H]2[C@@H]3CC=C4C[C@@H](O)CC[C@]4(C)[C@H]3CC[C@]12C)C(C)C [BETA-SITOSTEROL] | 98.8% | 99.7% | 82.3% | 57.8% | Active | Active | Active | Active |  |  |  |  | 
C=C(C)[C@@H]1CC[C@]2(C(=O)O)CC[C@]3(C)[C@H](CC[C@@H]4[C@@]5(C)CC[C@H](O)C(C)(C)[C@@H]5CC[C@]43C)[C@@H]12 [BETULINIC ACID] | 99.6% | 91.3% | 81.2% | 52.9% | Active | Active | Active | Active |  |  |  |  | 
CC1(C)CC[C@]2(C(=O)O)CC[C@]3(C)C(=CC[C@@H]4[C@@]5(C)CC[C@H](O)C(C)(C)[C@@H]5CC[C@]43C)[C@@H]2C1 [OLEANOLIC_ACID] | 97.8% | 99.9% | 82.4% | 54.1% | Active | Active | Active | Active |  |  |  |  | 
CC1(C)[C@@H](O)CC[C@]2(C)[C@H]3C=CC4=C(O)C(=O)C(=O)[C@@]4(C)[C@]3(C)CC[C@@H]12 [PALBINONE] | 98.7% | 99.8% | 81.5% | 41.6% | Active | Active | Active | Active | Dose-dependent effect | Dose-dependent effect | Dose-dependent effect | Active | Dose-dependent effect
CC[C@H](CC[C@@H](C)[C@H]1CC[C@H]2[C@@H]3CC=C4C[C@@H](O[C@@H]5O[C@H](CO)[C@@H](O)[C@H](O)[C@H]5O)CC[C@]4(C)[C@H]3CC[C@]12C)C(C)C [SITOGLUSIDE] | 99.9% | 92.8% | 82.7% | 66.3% | Active | Active | Active | Active |  |  |  |  | 
C[C@H]1[C@H](C)CC[C@]2(C(=O)O)CC[C@]3(C)C(=CC[C@@H]4[C@@]5(C)CC[C@H](O)C(C)(C)[C@@H]5CC[C@]43C)[C@H]12 [URSOLIC ACID] | 97.1% | 99.2% | 82% | 55.8% | Active | Active | Active | Active |  |  |  |  | 
